Test results published in US11229633B2, “Arimoclomol formulation” (Orphazyme A/S, priority 2014, dated 2022).
“Also recorded” adds a separate entry of the source.

Key:
[1] = molecular target: T1, human OAT3 (Homo sapiens, UniProt Q8TCC7); test: Uptake transporter substrate feasibility assay, OAT3; format: in vitro ADME; design: key to Substrate: NIO: No interaction observed
T1 construct: expressed in transfected cells; host or cells: MDCKII (protocol UPT-MDCKII-OAT3-E3S; control: parental MDCKII)
T1 sequence (Q8TCC7 1-542): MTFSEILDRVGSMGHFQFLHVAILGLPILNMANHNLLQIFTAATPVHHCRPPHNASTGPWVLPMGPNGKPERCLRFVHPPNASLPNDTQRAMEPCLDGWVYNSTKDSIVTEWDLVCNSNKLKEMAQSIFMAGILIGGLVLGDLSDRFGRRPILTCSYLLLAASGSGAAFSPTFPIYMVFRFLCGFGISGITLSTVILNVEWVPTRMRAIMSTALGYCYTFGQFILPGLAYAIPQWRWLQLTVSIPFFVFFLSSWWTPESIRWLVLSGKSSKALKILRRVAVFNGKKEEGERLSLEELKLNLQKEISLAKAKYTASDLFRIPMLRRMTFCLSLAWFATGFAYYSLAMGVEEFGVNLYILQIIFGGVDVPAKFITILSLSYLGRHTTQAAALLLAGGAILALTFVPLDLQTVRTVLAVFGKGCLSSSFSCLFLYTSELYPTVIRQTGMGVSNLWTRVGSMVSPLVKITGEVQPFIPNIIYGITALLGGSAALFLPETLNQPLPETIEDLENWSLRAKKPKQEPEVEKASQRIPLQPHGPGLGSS
Procedure: (§1) Uptake experiments were performed using CHO, MDCKII, or HEK293 cells stably expressing the respective uptake transporters.
Cells were cultured at 37±1° C. in an atmosphere of 95:5 air:CO2 as described in Table 4 and were plated onto standard 24-well tissue culture plates at 2×10^5 cells/well. The uptake of the TA was determined using cells overexpressing the respective uptake transporter and control cells, at two incubation time points (2 and 20 min) and at two concentrations (1 and 10 μM) of TA to determine whether or not the TA was actively taken up into the cells.
Before the experiment, the medium was removed and the cells were washed twice with 300 μl of HK buffer (pH 7.4) (prepared from Sigma chemicals). Cellular uptake of TA into the cells was measured by adding 300 μl of HK buffer containing TA and incubating them at 37±1° C. Reactions were quenched by removing the HK buffer containing the TA and the cells were washed twice with 300 μl of HK buffer. Cells were lysed by adding 300 μl of MeOH:H2O (2:1) and incubated for 20 minutes at 4±1° C. The amount of TA in the cell lysate was determined by LC-MS/MS. The amount of protein in each well was quantified using the BCA kit for protein determination (Sigma-Aldrich, St Louis, Mo., USA). Uptake of the probe substrate in control cells provided background activity values for all data points. Incubation without reference inhibitor (solvent only) provided 100% activity values. A reference inhibitor served as positive control for inhibition.
The fold accumulation value was defined as the ratio of uptake of TA or probe substrate into transfected and control cells:
[formula] UPTTRP: accumulated amount of TA or probe substrate in transfected cells normalized by protein content [pmol/mg protein] UPTCTL: accumulated amount of TA or probe substrate in control cells normalized by protein content [pmol/mg protein]
If the fold accumulation is >2 and can be inhibited by a known inhibitor of the transporter, the TA can be considered to be a substrate of the respective transporter.

[2] = molecular target: T1, human OAT3; test: Uptake transporter inhibition assay, OAT3; format: in vitro ADME; design: key to maximum inhibition: NIO: No interaction observed; details: for maximum inhibition: 0.3-300 μM
Procedure: as §1
Cells were cultured at 37±1° C. in an atmosphere of 95:5 air:CO2 and were plated onto standard 96-well tissue culture plates at the cell number described in table 4.
Before the experiment, the medium was removed and the cells were washed twice with 100 μl of HK buffer at pH 7.4 (prepared from Sigma chemicals, Sigma-Aldrich, St Louis, Mo.). Uptake experiments were carried out at 37±1° C. in 50 μl of HK buffer (pH 7.4) containing the probe substrate and the TA or vehicle control (water).
After the experiment, cells were washed twice with ice cold, 100 μl of HK buffer and lysed with 50 μl of 0.1 M NaOH (1 mM CaCl2) in 5% SDS in the case of OATP1B3). Fluo-3 transport (OATP1B3) was determined by measuring fluorescence using 485 nm and 520 nm as the excitation and emission wavelengths, respectively. Radiolabelled probe substrate transport was determined by measuring an aliquot (35 μl) from each well for liquid scintillation counting.
Uptake of the probe substrate in control cells provided background activity values for all data points. Incubation without TA or reference inhibitor (solvent only) provided 100% activity values. A reference inhibitor served as positive control for inhibition.
The amount of translocated probe substrate was determined for each well in cpm or RFU. Relative activities were calculated from the equation:
[formula] A: amount of translocated substrate in the presence of TA in transfected cells B: amount of translocated substrate in the presence of TA in control cells C: amount of translocated substrate in the presence of solvent in transfected cells D: amount of translocated substrate in the presence of solvent in control cells Calculation of Fold Accumulation Values
In uptake transporter inhibition assays, the IC50 (μM) was calculated, where applicable. […]

With `[O-][n+]1cccc(C(Cl)=NOCC(O)CN2CCCCC2)c1` (stereo not shown) [Arimoclomol, N-[2-hydroxy-3-(1-piperidinyl)-propoxy]-pyridine-1-oxide-3-carboximidoyl chloride] the “Substrate of the transporter (in words)” value [1] was “not a substrate”, the Fold accumulation ([1]; 1 μM, 2 min) was 0.86 and the Fold accumulation ([1]; 1 μM, 20 min) was 0.86. For the same molecule, the Fold accumulation ([1]; 10 μM, 2 min) was 0.85, the Fold accumulation ([1]; 10 μM, 20 min) was 0.82 and the Fold accumulation ([1]; 1 and 10 μM, 2 and 20 min) was under 2. The Substrate ([1]; Table 2) was “NIO”, the maximum inhibition ([2]; Table 2) was “NIO” and the maximum inhibition ([2]; Table 5) was “NIO”. The “Influence on OAT3-mediated probe substrate accumulation (in words)” value ([2]; applied concentrations) was “did not influence; also recorded: not an inhibitor”.
